Experimental data: PubChem BioAssay (NCI)
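Assay format: 96-well plates, 48-hour exposure. At the TGI there is no net growth.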

Tests used:
Experiment in all cases: NCI-60 cell line screen, 48 h
786-0 renal = tested on: 786-0 renal
A498 renal = tested on: A498 renal
A549 NSCLC = tested on: A549 NSCLC
ACHN renal = tested on: ACHN renal
BT-549 breast = tested on: BT-549 breast
CAKI-1 renal = tested on: CAKI-1 renal
CCRF-CEM leukemia = tested on: CCRF-CEM leukemia
COLO 205 colon = tested on: COLO 205 colon
DU-145 prostate = tested on: DU-145 prostate
EKVX NSCLC = tested on: EKVX NSCLC
HCC-2998 colon = tested on: HCC-2998 colon
HCT-116 colon = tested on: HCT-116 colon
HCT-15 colon = tested on: HCT-15 colon
HL-60(TB) leukemia = tested on: HL-60(TB) leukemia
HOP-62 NSCLC = tested on: HOP-62 NSCLC
HOP-92 NSCLC = tested on: HOP-92 NSCLC
HS 578T breast = tested on: HS 578T breast
HT29 colon = tested on: HT29 colon
IGROV1 ovarian = tested on: IGROV1 ovarian
K-562 leukemia = tested on: K-562 leukemia
KM12 colon = tested on: KM12 colon
LOX IMVI melanoma = tested on: LOX IMVI melanoma
MALME-3M melanoma = tested on: MALME-3M melanoma
MCF7 breast = tested on: MCF7 breast
MDA-MB-231 breast = tested on: MDA-MB-231 breast
MDA-MB-435 = tested on: MDA-MB-435
MDA-N = tested on: MDA-N
MOLT-4 leukemia = tested on: MOLT-4 leukemia
NCI-H226 lung = tested on: NCI-H226 lung
NCI-H23 lung = tested on: NCI-H23 lung
NCI-H460 lung = tested on: NCI-H460 lung
NCI-H522 lung = tested on: NCI-H522 lung
NCI/ADR-RES ovarian = tested on: NCI/ADR-RES ovarian
OVCAR-3 ovarian = tested on: OVCAR-3 ovarian
OVCAR-4 ovarian = tested on: OVCAR-4 ovarian
OVCAR-5 ovarian = tested on: OVCAR-5 ovarian
OVCAR-8 ovarian = tested on: OVCAR-8 ovarian
PC-3 prostate = tested on: PC-3 prostate
RPMI-8226 leukemia = tested on: RPMI-8226 leukemia
RXF 393 renal = tested on: RXF 393 renal
SF-268 CNS = tested on: SF-268 CNS
SF-295 CNS = tested on: SF-295 CNS
SF-539 CNS = tested on: SF-539 CNS
SK-MEL-2 melanoma = tested on: SK-MEL-2 melanoma
SK-MEL-28 melanoma = tested on: SK-MEL-28 melanoma
SK-MEL-5 melanoma = tested on: SK-MEL-5 melanoma
SK-OV-3 ovarian = tested on: SK-OV-3 ovarian
SN12C renal = tested on: SN12C renal
SNB-75 CNS = tested on: SNB-75 CNS
SR leukemia = tested on: SR leukemia
SW-620 colon = tested on: SW-620 colon
T-47D breast = tested on: T-47D breast
TK-10 renal = tested on: TK-10 renal
U251 CNS = tested on: U251 CNS
UACC-257 melanoma = tested on: UACC-257 melanoma
UACC-62 melanoma = tested on: UACC-62 melanoma
UO-31 renal = tested on: UO-31 renal

For C(=N\NC1=NCCN1)/c1ccc2ccccc2c1, the TGI (786-0 renal) was 26.3 µM, the TGI (A498 renal) was 28.9 µM and the TGI (A549 NSCLC) was 29.5 µM. It also gave a TGI (ACHN renal) of 33.7 µM, a TGI (BT-549 breast) of 25.3 µM and a TGI (CAKI-1 renal) of 28 µM. For the same compound, the TGI (CCRF-CEM leukemia) was 41.8 µM, the TGI (COLO 205 colon) was 20.4 µM and the TGI (DU-145 prostate) was greater than 100 µM. It also gave a TGI (EKVX NSCLC) of 50.8 µM, a TGI (HCC-2998 colon) of 31.2 µM and a TGI (HCT-116 colon) of 28.9 µM. The TGI (HCT-15 colon) was 43.6 µM, the TGI (HL-60(TB) leukemia) was 34.5 µM and the TGI (HOP-62 NSCLC) was 31 µM. The TGI (HOP-92 NSCLC) was 13.3 µM, the TGI (HS 578T breast) was 43.3 µM and the TGI (HT29 colon) was 30.4 µM. The TGI (IGROV1 ovarian) was 24.6 µM, the TGI (K-562 leukemia) was 32.6 µM and the TGI (KM12 colon) was 28 µM. It also gave a TGI (LOX IMVI melanoma) of 26.7 µM, a TGI (MALME-3M melanoma) of 28.3 µM and a TGI (MCF7 breast) of 32.3 µM. It also gave a TGI (MDA-MB-231 breast) of 35.3 µM, a TGI (MDA-MB-435) of 31.3 µM and a TGI (MDA-N) of 27.9 µM. It also gave a TGI (MOLT-4 leukemia) of 42.8 µM, a TGI (NCI-H226 lung) of 51.2 µM and a TGI (NCI-H23 lung) of 51.1 µM. For the same compound, the TGI (NCI-H460 lung) was 29.5 µM, the TGI (NCI-H522 lung) was 29.6 µM and the TGI (NCI/ADR-RES ovarian) was 39.4 µM. The TGI (OVCAR-3 ovarian) was 32.9 µM, the TGI (OVCAR-4 ovarian) was 54.3 µM and the TGI (OVCAR-5 ovarian) was 44 µM. For the same compound, the TGI (OVCAR-8 ovarian) was 35 µM, the TGI (PC-3 prostate) was 28.5 µM and the TGI (RPMI-8226 leukemia) was 49.4 µM. For the same compound, the TGI (RXF 393 renal) was 34.6 µM, the TGI (SF-268 CNS) was 47.6 µM and the TGI (SF-295 CNS) was 29.9 µM. It also gave a TGI (SF-539 CNS) of 39.4 µM, a TGI (SK-MEL-2 melanoma) of 38 µM and a TGI (SK-MEL-28 melanoma) of 28.7 µM. The TGI (SK-MEL-5 melanoma) was 25.9 µM, the TGI (SK-OV-3 ovarian) was 34.1 µM and the TGI (SN12C renal) was 35.4 µM. It also gave a TGI (SNB-75 CNS) greater than 100 µM, a TGI (SR leukemia) greater than 100 µM and a TGI (SW-620 colon) of 32.6 µM. The TGI (T-47D breast) was greater than 100 µM, the TGI (TK-10 renal) was 26.4 µM and the TGI (U251 CNS) was 29.8 µM. For the same compound, the TGI (UACC-257 melanoma) was 29.3 µM, the TGI (UACC-62 melanoma) was 29 µM and the TGI (UO-31 renal) was 19.9 µM.
